The values that follow come from patent US10633375B2, “Oxopicolinamide derivative, preparation method therefor and pharmaceutical use thereof” (Jiangsu Hengrui Medicine Co., Ltd., priority 2016, dated 2020).

Each structure is given as a SMILES string.

Sequence of Coagulation Factor XIa protease (P03951 388-625): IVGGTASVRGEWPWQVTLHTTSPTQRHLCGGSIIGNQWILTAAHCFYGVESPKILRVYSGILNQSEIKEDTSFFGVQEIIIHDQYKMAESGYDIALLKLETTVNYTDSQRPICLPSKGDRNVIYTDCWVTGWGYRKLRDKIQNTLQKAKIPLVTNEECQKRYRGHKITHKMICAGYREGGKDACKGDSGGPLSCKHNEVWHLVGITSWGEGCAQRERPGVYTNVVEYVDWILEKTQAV
Sequence of Coagulation Factor XIa protease (P03951 19-387 partner): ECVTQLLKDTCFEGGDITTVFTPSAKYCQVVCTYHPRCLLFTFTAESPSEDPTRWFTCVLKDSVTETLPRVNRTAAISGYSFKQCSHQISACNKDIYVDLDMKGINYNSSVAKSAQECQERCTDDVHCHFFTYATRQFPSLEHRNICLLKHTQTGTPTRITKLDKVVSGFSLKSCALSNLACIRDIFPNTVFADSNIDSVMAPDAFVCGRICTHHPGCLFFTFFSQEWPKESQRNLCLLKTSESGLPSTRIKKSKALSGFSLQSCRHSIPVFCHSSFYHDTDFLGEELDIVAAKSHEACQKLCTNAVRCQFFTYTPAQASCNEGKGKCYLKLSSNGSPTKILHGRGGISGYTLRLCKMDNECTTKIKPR

The target of the experiment is Coagulation Factor XIa protease (Homo sapiens (Human), UniProt P03951). The experiment in a line: Inhibition of Factor XIa detected by absorption photometry. Particulars: absorbance at 405 nm, 10 minutes at 37° C. Format: biochemical. The procedure:
Test Example 1: Biological Activity of the Compounds of the Present Invention on
The Inhibition of Factor XIa Detected by Absorption Photometry
1. Experimental Materials
Enzyme: Coagulation Factor XIa protease (Abcam, Art. No ab62411)
Substrate: Coagulation Factor XIa specific substrate (HYPHEN1310 med, Art. No. Biophen cs-21(66))
2. Experimental Procedure
20 mM of test compound dissolved in 100% DMSO was diluted to 200, 20, 2, 0.2, 0.02, 0.002 μM with 100% DMSO; 1 μl of the compound was added to each well in a 384-well plate, blank and control wells were replaced with DMSO. The plate was centrifuged to remove the compound to the bottom. 10 μl (2.5 μg/ml) of FXIa enzyme solution was added to each well, and 10 μl of buffer was added to the blank well. The plate was centrifuged to remove the enzyme solution to the bottom.
Finally, 10 μl of 2 mM substrate were added to each well, and the plate was centrifuged to remove the substrate solution to the bottom.
The plate was incubated for 10 minutes at 37° C.; and then the absorbance was measured at 405 nm.
Usually IC50 stands for the midpoint of a concentration-inhibition curve. `COc1cn(C(CC2CCC2)C(=O)Nc2ccc(C(=O)O)cc2)c(=O)cc1-c1c(C(C)=O)ccc(Cl)c1F` (stereo not shown) [Example 159, 4-(2-(4-(6-acetyl-3-chloro-2-fluorophenyl)-5-methoxy-2-oxopyridin-1(2H)-yl)-3-cyclobutylpropanamido)benzoic acid] gave an IC50 of 33 nM. Regarding `CCCC(=O)c1ccc(Cl)cc1-c1cc(=O)n(C(Cc2ccccc2)C(=O)Nc2ccc(C(=O)O)cc2)cc1OC` (stereo not shown) [Example 21, 4-(2-(4-(2-butyryl-5-chlorophenyl)-5-methoxy-2-oxopyridin-1 (2H)-yl)-3-phenylpropan amido)benzoic acid], the midpoint of inhibition, the IC50, lay at 36 nM. For `COc1cn(C(Cc2ccccc2)C(=O)Nc2ccc3nn(C)cc3c2)c(=O)cc1-c1cc(Cl)ccc1C(C)=O` (stereo not shown) [Example 18, 2-(4-(2-acetyl-5-chlorophenyl)-5-methoxy-2-oxopyridin-1(2H)-yl)-N-(2-methyl-2H-indazol-5-yl)-3-phenylpropanamide] the value was 56 nM; for `COc1cn(C(Cc2ccccc2)C(=O)Nc2ccc3nccnc3c2)c(=O)cc1-c1cc(Cl)ccc1C(C)=O` (stereo not shown) [Example 45, 2-(4-(2-acetyl-5-chlorophenyl)-5-methoxy-2-oxopyridin-1(2H)-yl)-3-phenyl-N-(quinoxalin-6-yl)propanamide], 69 nM.

`CCC(=O)c1ccc(Cl)cc1-c1cc(=O)n(C(Cc2ccccc2)C(=O)Nc2ccc(C(N)=O)cc2)cc1OC` (stereo not shown) [Example 24, 4-(2-(4-(5-chloro-2-propionylphenyl)-5-methoxy-2-oxopyridin-1(2H)-yl)-3-phenylpropanamido)benzamide]: half-maximal inhibition (IC50) required 36 nM. For `COc1cn(C(Cc2cnn(C)c2)C(=O)Nc2ccc(C(=O)O)cc2)c(=O)cc1-c1cc(Cl)ccc1C(C)=O` (stereo not shown) [Example 103, 4-(2-(4-(2-acetyl-5-chlorophenyl)-5-methoxy-2-oxopyridin-1(2H)-yl)-3-(1-methyl-1H-pyrazol-4-yl)propanamido)benzoic acid] the value was 70 nM; for `COc1cn(C(Cc2ccc(C)cc2)C(=O)Nc2ccc(C(=O)O)cc2)c(=O)cc1-c1cc(Cl)ccc1C(C)=O` (stereo not shown) [Example 74, 4-(2-(4-(2-acetyl-5-chlorophenyl)-5-methoxy-2-oxopyridin-1(2H)-yl)-3-(p-tolyl)propanamido)benzoic acid], 100 nM; for `COc1cn(C(Cc2ccc(NC(C)=O)cc2)C(=O)Nc2ccc(C(=O)O)cc2)c(=O)cc1-c1cc(Cl)ccc1C(C)=O` (stereo not shown) [Example 75, 4-(3-(4-acetamidophenyl)-2-(4-(2-acetyl-5-chlorophenyl)-5-methoxy-2-oxopyridin-1(2H)-yl)propanamido)benzoic acid], 100 nM.

The molecule `COc1cn([C@@H](CC2CCC2)C(=O)Nc2ccc(C(=O)O)cc2)c(=O)cc1-c1c(C(C)=O)ccc(Cl)c1F` [Example 161, (S)-4-(2-(4-(6-acetyl-3-chloro-2-fluorophenyl)-5-methoxy-2-oxopyridin-1(2H)-yl)-3-cyclobutylpropanamido)benzoic acid] had an IC50 of 13100 nM.

In turn, `CCC(=O)c1ccc(Cl)cc1-c1cc(=O)n(C(CCOC(C)(C)C)C(=O)Nc2ccc3nc(C)c(C)nc3c2)cc1OC` (stereo not shown) [Example 124, 4-(tert-butoxy)-2-(4-(5-chloro-2-propionylphenyl)-5-methoxy-2-oxopyridin-(2H)-yl)-N-(2,3-dimethylquinoxalin-6-yl)butanamide] displayed an IC50 of 100 nM.

On to `CCC(=O)c1ccc(Cl)cc1-c1cc(=O)n(C(Cc2ccccc2)C(=O)Nc2ccc3ncncc3c2)cc1OC` (stereo not shown) [Example 23, 2-(4-(5-chloro-2-propionylphenyl)-5-methoxy-2-oxopyridin-1(2H)-yl)-3-phenyl-N-(quinazolin-6-yl)propanamide], for which the IC50 came out at 24 nM. The molecule `CCC(=O)c1ccc(Cl)cc1-c1cc(=O)n([C@H](CCOC(C)(C)C)C(=O)Nc2ccc3nccnc3c2)cc1OC` [Example 115, (R)-4-(tert-butoxy)-2-(4-(5-chloro-2-propionylphenyl)-5-methoxy-2-oxopyridin-1(2H)-yl)-N-(quinoxalin-6-yl)butanamide] displayed an IC50 greater than 10000 nM. The molecule `COc1cn(C(Cc2ccccc2)C(=O)Nc2ccc3cnccc3c2)c(=O)cc1-c1cc(Cl)ccc1C(C)=O` (stereo not shown) [Example 46, 2-(4-(2-acetyl-5-chlorophenyl)-5-methoxy-2-oxopyridin-1 (2H)-yl)-N-(isoquinolin-6-yl)-3-phenylpropanamide] yielded an IC50 of 71 nM.

The molecule `COc1cn(C(CCOC(C)(C)C)C(=O)Nc2ccc(C(=O)O)cc2)c(=O)cc1-c1cc(Cl)ccc1C(C)=O` (stereo not shown) [Example 110, 4-(2-(4-(2-acetyl-5-chlorophenyl)-5-methoxy-2-oxopyridin-1(2H)-yl)-4-(tert-butoxy)butanamido)benzoic acid] displayed an IC50 of 53 nM. `COc1cn(C(Cc2c(Cl)cccc2Cl)C(=O)Nc2ccc(C(=O)O)cc2)c(=O)cc1-c1cc(Cl)ccc1C(C)=O` (stereo not shown) [Example 76, 4-(2-(4-(2-acetyl-5-chlorophenyl)-5-methoxy-2-oxopyridin-1(2H)-yl)-3-(2,6-dichlorophenyl)propanamido)benzoic acid] registered a half-inhibitory concentration (IC50) of 100 nM. The same measure for `CNC(=O)c1ccc(NC(=O)[C@H](CCOC(C)(C)C)n2cc(OC)c(-c3cc(Cl)ccc3C(C)=O)cc2=O)cc1` [Example 123, (S)-4-(2-(4-(2-acetyl-5-chlorophenyl)-5-methoxy-2-oxopyridin-1(2H)-yl)-4-(tert-butoxy)butanamido)-N-methylbenzamide]: 100 nM. `COc1cn([C@@H](Cc2ccn(C)n2)C(=O)Nc2ccc(C(=O)O)cc2)c(=O)cc1-c1cc(Cl)ccc1C(C)=O` [Example 101, (S)-4-(2-(4-(2-acetyl-5-chlorophenyl)-5-methoxy-2-oxopyridin-1(2H)-yl)-3-(1-methyl-1H-pyrazol-3-yl)propanamido)benzoic acid] registered an IC50 of 23 nM.

In turn, `CCC(=O)c1ccc(Cl)cc1-c1cc(=O)n([C@H](Cc2ccccc2)C(=O)Nc2ccc(C(N)=O)cc2)cc1OC` [Example 25, (R)-4-(2-(4-(5-chloro-2-propionylphenyl)-5-methoxy-2-oxopyridin-1(2H)-yl)-3-phenylpropanamido)benzamide] yielded an IC50 of 1520 nM. In the case of `CCC(=O)c1ccc(Cl)cc1-c1cc(=O)n(C(CCOC(C)(C)C)C(=O)Nc2ccc3[nH]c(C(=O)O)cc3c2)cc1OC` (stereo not shown) [Example 119, 5-(4-(tert-butoxy)-2-(4-(5-chloro-2-propionylphenyl)-5-methoxy-2-oxopyridin-1(2H)-yl)butanamido)-1H-indole-2-carboxylic acid], the IC50 came to 45 nM. With `COc1cn(C(Cc2ccccc2C)C(=O)Nc2ccc(C(=O)O)cc2)c(=O)cc1-c1cc(Cl)ccc1C(C)=O` (stereo not shown) [Example 66, 4-(2-(4-(2-acetyl-5-chlorophenyl)-5-methoxy-2-oxopyridin-1(2H)-yl)-3-(o-tolyl)propan amido)benzoic acid], the IC50 was 34 nM. Consider `COc1cn(C(Cc2ccccn2)C(=O)Nc2ccc(C(=O)O)cc2)c(=O)cc1-c1cc(Cl)ccc1C(C)=O` (stereo not shown) [Example 79, 4-(2-(4-(2-acetyl-5-chlorophenyl)-5-methoxy-2-oxopyridin-1(2H)-yl)-3-(pyridin-2-yl)propanamido)benzoic acid], for which the IC50 worked out at 45 nM. For `CCC(=O)c1ccc(Cl)cc1-c1cc(=O)n(C(Cc2ccccc2)C(=O)Nc2ccc3[nH]cnc3c2)cc1OC` (stereo not shown) [Example 38, N-(1H-benzo[d]imidazol-5-yl)-2-(4-(5-chloro-2-propionylphenyl)-5-methoxy-2-oxopyridin-1(2H)-yl)-3-phenylpropanamide] the value was 30 nM. As to `COc1cn(C(Cc2ccc(NC(=O)C3CC3)cc2)C(=O)Nc2ccc(C(=O)O)cc2)c(=O)cc1-c1cc(Cl)ccc1C(C)=O` (stereo not shown) [Example 16, 4-(2-(4-(2-acetyl-5-chlorophenyl)-5-methoxy-2-oxopyridin-1(2H)-yl)-3-(4-(cyclopropanecarboxamido)phenyl)propanamido)benzoic acid], the IC50 came out at 100 nM. For `COc1cn([C@H](Cc2cccnc2)C(=O)Nc2ccc(C(=O)O)cc2)c(=O)cc1-c1cc(Cl)ccc1C(C)=O` [Example 83, (R)-4-(2-(4-(2-acetyl-5-chlorophenyl)-5-methoxy-2-oxopyridin-1 (2H)-yl)-3-(pyridin-3-yl)propanamido)benzoic acid] the value was greater than 10000 nM; for `COc1cn(C(Cc2cccc(C#N)c2)C(=O)Nc2ccc(C(=O)O)cc2)c(=O)cc1-c1cc(Cl)ccc1C(C)=O` (stereo not shown) [Example 88, 4-(2-(4-(2-acetyl-5-chlorophenyl)-5-methoxy-2-oxopyridin-1(2H)-yl)-3-(3-cyanophenyl)propanamido)benzoic acid], 74 nM; for `COc1cn([C@H](Cc2ccn(C3CC3)n2)C(=O)Nc2ccc(C(=O)O)cc2)c(=O)cc1-c1cc(Cl)ccc1C(C)=O` [Example 95, (R)-4-(2-(4-(2-acetyl-5-chlorophenyl)-5-methoxy-2-oxopyridin-(2H)-yl)-3-(1-cyclopropyl-1H-pyrazol-3-yl)propanamido)benzoic acid], 7510 nM. In turn, `COc1cn(C(Cc2ccccc2Br)C(=O)Nc2ccc(C(=O)O)cc2)c(=O)cc1-c1cc(Cl)ccc1C(C)=O` (stereo not shown) [Example 64, 4-(2-(4-(2-acetyl-5-chlorophenyl)-5-methoxy-2-oxopyridin-1 (2H)-yl)-3-(2-bromophenyl)propanamido)benzoic acid] registered a half-maximal inhibitory concentration (IC50) of 58 nM. Molecule `COc1cn(C(Cc2ccccc2)C(=O)Nc2ccc3ncncc3c2)c(=O)cc1-c1cc(Cl)ccc1C(C)=O` (stereo not shown) [Example 40, 2-(4-(2-acetyl-5-chlorophenyl)-5-methoxy-2-oxopyridin-1(2H)-yl)-3-phenyl-N-(quinazolin-6-yl)propanamide] displayed an IC50 of 38 nM.
